Data published in patent US12435085B2, “Crystalline forms and formulations of a VCP/p97 inhibitor” (CASI Pharmaceuticals, Inc., priority 2020, dated 2025).

Columns and labels:
[1] = Relative humidity (RH) stress of salts; type: physicochemical; conditions: solid in open vial, 10 days at 94% RH
Excerpt: Solids of select Compound 1 salts were exposed to ˜94% RH (ASTM Standard E, 104-85, 1996) for a given period of time by placing the solids into an open vial inside a sealed container. Samples were observed visually for signs of deliquescence after removal from the stress environment.

p97 = p97 (Homo sapiens, UniProt P55072); experiment: p97 inhibition assay (ADP glo luminescence); type: biochemical; conditions: ATP 20 μM, p97 20 nM, 37° C. for 15 min
Chain of p97 (P55072 whole entry): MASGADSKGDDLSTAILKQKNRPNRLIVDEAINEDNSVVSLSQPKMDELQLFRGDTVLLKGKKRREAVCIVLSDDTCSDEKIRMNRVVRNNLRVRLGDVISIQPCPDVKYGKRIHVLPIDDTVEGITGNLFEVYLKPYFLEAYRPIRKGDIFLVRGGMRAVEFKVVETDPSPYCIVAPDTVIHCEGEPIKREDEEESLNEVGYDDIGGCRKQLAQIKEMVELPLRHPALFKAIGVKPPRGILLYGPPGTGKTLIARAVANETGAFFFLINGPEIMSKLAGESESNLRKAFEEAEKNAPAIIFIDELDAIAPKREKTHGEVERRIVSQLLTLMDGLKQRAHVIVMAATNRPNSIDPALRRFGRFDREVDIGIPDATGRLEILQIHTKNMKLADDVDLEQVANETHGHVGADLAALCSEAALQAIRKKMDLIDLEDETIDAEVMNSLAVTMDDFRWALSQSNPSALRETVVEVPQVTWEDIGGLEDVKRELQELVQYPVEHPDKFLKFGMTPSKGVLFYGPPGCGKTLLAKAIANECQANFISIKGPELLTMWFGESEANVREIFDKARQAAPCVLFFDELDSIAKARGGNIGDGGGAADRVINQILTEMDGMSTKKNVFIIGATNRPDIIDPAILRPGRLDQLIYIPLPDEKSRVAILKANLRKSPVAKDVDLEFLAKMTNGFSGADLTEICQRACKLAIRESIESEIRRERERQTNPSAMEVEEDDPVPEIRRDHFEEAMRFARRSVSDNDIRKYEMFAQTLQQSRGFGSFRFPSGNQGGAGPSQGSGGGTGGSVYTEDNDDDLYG
Protocol: The p97 assay is an assay used to determine inhibitory activity of compounds against the p97 complex. Inhibition of activity of the p97 proteosome complex can enable apoptosis and cause elimination of neoplastic cells (cancer cells). The assay follows that of Christianson in Nat. Cell Biol., (2011) 14:93. The reagents used for the p97 assay include an assay buffer which is a mixture of 50 mM TRIS pH 7.5, 20 mM MgCI˜, 0.02% TX-100, 1 mM DTT and 0.2% (v/v) glycerol. The well plate is a Corning 3674, 384w plate. The identification kit is an ADP glo kit (Promega): stop buffer, detection reagent.
The assay is conducted as follows: • Serial dilute compound in DMSO in a 1:3.33-fold 10 point serial dilution. • In each well of 384w plate add the following reagents: • 0.5 μL compound serial diluted in DMSO (Final Conc. 10%) • 2 μL ATP (Final Conc.=20 μM, diluted in assay buffer) • 2.5 μL p97 (Final Conc.=20 nM, diluted in assay buffer). • Incubate at 37° C. for 15 min. • Add 5 μL of stop buffer, incubate at RT for 40 min. • Add 10 μL of detection reagent, incubate at RT for 30 min. • Read luminescence on Envision plate reader. […]

Cc1cc2c(C(N)=O)cccc2n1-c1nc2c(c(NCc3ccccc3)n1)CCCN2.Cl.Cl [Compound 1 hydrochloride, 1-(4-(benzylamino)-5,6,7,8-tetrahydropyrido[2,3-d]pyrimidin-2-yl)-2-methyl-1H-indole-4-carboxamide hydrochloric acid salt (hydrochloride)]
RH stress: change in appearance/texture (signs of deliquescence, visual) [1]: no apparent change in appearance/texture

Cc1cc2c(C(N)=O)cccc2n1-c1nc2c(c(NCc3ccccc3)n1)CCCN2.O=S(=O)(O)O.O=S(=O)(O)O [Compound 1 sulfate, 1-(4-(benzylamino)-5,6,7,8-tetrahydropyrido[2,3-d]pyrimidin-2-yl)-2-methyl-1H-indole-4-carboxamide sulfuric acid salt (sulfate)]
RH stress: change in appearance/texture (signs of deliquescence, visual) [1]: no apparent change in appearance/texture

Cc1cc2c(C(N)=O)cccc2n1-c1nc2c(c(NCc3ccccc3)n1)CCCN2 [Compound 1, 1-(4-(benzylamino)-5,6,7,8-tetrahydropyrido[2,3-d]pyrimidin-2-yl)-2-methyl-1H-indole-4-carboxamide]
IC50 (p97): < 0.03 µM

Cc1cc2c(C(N)=O)cccc2n1-c1nc2c(c(NCc3ccccc3)n1)CCCN2.Cc1ccc(S(=O)(=O)O)cc1.Cc1ccc(S(=O)(=O)O)cc1 [Compound 1 tosylate, 1-(4-(benzylamino)-5,6,7,8-tetrahydropyrido[2,3-d]pyrimidin-2-yl)-2-methyl-1H-indole-4-carboxamide p-toluenesulfonic acid salt (tosylate)]
RH stress: change in appearance/texture (signs of deliquescence, visual) [1]: no apparent change in appearance/texture
